From patent publication KR20170075293A, “피부 개선용 조성물” (주식회사 엘지생활건강, priority 2015, dated 2017)

Legend:
Type in all cases: cell-based
[1] = system: mouse melanoma cells [쥐의 멜라노마 세포(B-16 mouse melanoma cell)]; assay: Inhibition of melanin production in B-16 mouse melanoma cells; conditions: relative to control; for inhibition rate (melanin production): 3 days, absorbance at 400 nm per 10^6 cells, n = 3
HAS-3 = HAS-3 mRNA expression in human keratinocytes (real time PCR); conditions: Keratinocyte, 24 h, untreated negative control = 100%, GAPDH reference, n = 4, read-out: HAS-3 expression amount
HAS-2 = HAS-2 mRNA expression in human keratinocytes (real time PCR); conditions: Keratinocyte, 24 h, untreated negative control = 100%, GAPDH reference, n = 4, read-out: HAS-2 expression amount
[2] = system: sulfated glycosaminoglycan [황산화 글리코사미노글리칸], human fibroblast [인간 유래 섬유아세포]; assay: Sulfated glycosaminoglycan synthesis in human fibroblasts (Blyscan kit); conditions: 24 h; for sulfated glycosaminoglycan production amount: n = 4
[3] = system: collagen type I [콜라겐 타입 I], human fibroblast [인간 유래 섬유아세포]; assay: Collagen type I synthesis in human fibroblasts (PICP EIA kit); conditions: 48 h, n = 4

SMILES: OC[C@H]1O[C@@H](Oc2ccc(O)cc2)[C@H](O)[C@@H](O)[C@@H]1O [알부틴, Arbutin, reference compound]
- inhibition rate (melanin production) ([1]; 200 ㎍/ml): 31.3%

SMILES: N[C@H]1C(O)O[C@H](CO)[C@@H](O)[C@@H]1O (stereo partly shown) [글루코사민, reference compound]
- activity at 100 ppm (HAS-3; 100 ppm): 125%
- activity at 100 ppm (HAS-2; 100 ppm): 114%

SMILES: COc1cc2ccc(=O)oc2c(OC)c1O [이소프락시딘, Isofraxidin]
- activity at 1 ppm (HAS-3; 1 ppm): 126%
- activity at 10 ppm (HAS-3; 10 ppm): 151%
- sulfated glycosaminoglycan production amount ([2]; 1 ㎍/ml): 0.50 ng/mL
- sulfated glycosaminoglycan production amount ([2]; 10 ㎍/ml): 1.64 ng/mL
- sulfated glycosaminoglycan production amount ([2]; 20 ㎍/ml): 2.98 ng/mL
- activation at 20 µg/mL ([2]; Homo sapiens, Fibroblast, 20 ㎍/ml, relative to untreated control (0.46 ng/ml), n = 4, read-out: sulfated glycosaminoglycan production increase rate): 548%
- inhibition rate (melanin production) ([1]; 1 ㎍/ml): 29.1%
- inhibition rate (melanin production) ([1]; 10 ㎍/ml): 34.9%
- inhibition rate of melanin production (summary statement) ([1]; concentration not given): ≥ 25%
- activity at 1 ppm (HAS-2; 1 ppm): 122%
- activity at 10 ppm (HAS-2; 10 ppm): 135%
- collagen production amount ([3]; 10 ㎍/ml): 304 ng/mL
- collagen production amount ([3]; 20 ㎍/ml): 370 ng/mL
